Data taken from paper PMC10537356, “Analyzing the Material Basis of Anti-RSV Efficacy of Lonicerae japonicae Flos Based on the PK-PD Model” (Molecules, 2023).
Where two headings read alike, the source gives them in different places.

Key:
[1] = Pharmacokinetic study of 15 LJF components in plasma of RSV-infected mice after oral LJF extract (UHPLC-QQQ MS); format: in vivo; set-up: Tmax: unit: h
Description: The LJF (12.0 g) were pulverized and soaked in pure water at a solid: liquid ratio of 1:200 and followed by extraction for 30 min. Then, the LJF extract was obtained by filtration, centrifugation (5000 rpm, 10 min) and concentration. Finally, the remains were freeze-dried and stored at −20 °C for subsequent pharmacokinetic assays.
All mice fasted for 1 night after being acclimatized for 7 days (no water restriction) and were randomly separated into 3 groups with 6 mice in each group. One group of healthy mice was used as the normal control group and administered physiological saline; the model group was established by intranasal infusion of RSV (TCID50 = 10^−6, 35 μL/mouse) and administered physiological saline. Members of the drug group were orally administered with LJF extract at the dose of 12 g/kg after infecting RSV. At 0.25 h, 0.5 h, 0.75 h, 1 h, 1.5 h, 2 h, 3 h,4 h, 6 h, 8 h, 10 h, 12 h and 24 h after administration blood samples (approximately 500 μL) were collected into anticoagulant tubes. The blood samples were centrifuged at 3500 rpm, 4 °C for 10 min, and the plasma (upper layer) was separated and stored at −80 °C till analysis. At the same time, the lung tissue was removed, weighed and placed in the EP tube together with five times the weight of the lung tissue in PBS solution containing 1% PMSF. Subsequently, the tissue samples were homogenized using the tissue grinder, and centrifugation to obtain a supernatant for further examination.
An amount of 50 μL IS and 2 mL acetonitrile were mixed into 200 μL plasma, after which the mixture was centrifuged (12,000 rpm, 4 °C, 10 min) and dried with nitrogen. The residue was dissolved in 70% acetonitrile containing 1% formic acid, centrifuged and subsequently the supernatant (2 μL) was injected into the UHPLC-QQQ-MS system.
Agilent 1260 series (Santa Clara, CA, USA) chromatography system was equipped with a solvent degasser, G1311B quaternary pump and G1329B automated injector. The elution was performed on a Halo® C18 column (2.1 × 100 mm, 2.7 μm) at 30 °C, and the mobile phase consisted of 0.05% formic acid in water for solvent A and 0.05% formic acid in acetonitrile for solvent B at a flow rate of 0.3 mL/min. The gradient elution was as follows: 0–30 min at 5–25% B, 30–35 min at 25–55% B, 35–45 min at 55–70% B, 45–55 min at 70–100% B, and 5 μL for analysis.
The MS/MS analysis was performed by Agilent 6470 Triple Quadrupole LC/MS (Santa Clara, CA, USA) with an ESI source. MRM was selected for the detection of the standards and internal standard with a dwell time of 2 ms. The mass spectrometry conditions were optimized as follows: Nebulizer pressure: 50 psi; capillary: positive: 4000 V, negative: 3500 V; cell acceleration voltage: 5 V; gas temp: 350 °C and flow rate at 10 L/min. The acquired data were processed and analyzed by Mass Hunter Workstation quantitative analysis.
Fifteen standards and IS were optimized for mass conditions by the positive and negative ion modes of the chromatographic system, respectively. The pharmacokinetics of 15 chemical constituents in RSV-infected mice were assessed using the UPLC-QQQ-MS/MS method.
The pharmacokinetic parameters, including maximum concentration (Cmax), time to reach Cmax (Tmax), the elimination half-life (T1/2), mean residence time (MRT), and area under the concentration–time curve (AUC) were calculated using non-compartmental analysis by Phoenix 8.1.0.3530.

viruses = tested on: viruses; set-up: method as in PMID 19904996; conditions: prevents viruses from entering cells; cited from earlier work
RSV = conditions: cited from earlier work; for anti-RSV effects: by inhibiting virus–cell fusion in the early stage and cell–cell fusion at the end of the RSV replication cycle
[2] = RSV mice plasma, oral LJF extract 12.0 g/kg
[3] = mouse, plasma, po, 12 g/kg, RSV mice plasma, oral LJF extract 12.0 g/kg, n = 6, read-out: AUC(0–t)
[4] = mouse, plasma, po, 12 g/kg, RSV mice plasma, oral LJF extract 12.0 g/kg, n = 6, read-out: AUC(0–∞)
[5] = mouse, plasma, po, 12 g/kg, RSV mice plasma, oral LJF extract 12.0 g/kg, n = 6, read-out: Cmax
[6] = mouse, plasma, po, 12 g/kg, RSV mice plasma, oral LJF extract 12.0 g/kg, n = 6, read-out: MRT(0–t)
[7] = mouse, plasma, po, 12 g/kg, RSV mice plasma, oral LJF extract 12.0 g/kg, n = 6, read-out: T1/2 (converted)
[8] = mouse, RSV mice plasma, oral LJF extract 12.0 g/kg, n = 6, read-out: Tmax
[9] = RSV mice plasma, oral LJF extract 12.0 g/kg, n = 6
[10] = mouse, in vivo, RSV mice plasma, oral LJF extract 12.0 g/kg, n = 6, read-out: AUC(0–t)
[11] = mouse, in vivo, RSV mice plasma, oral LJF extract 12.0 g/kg, n = 6, read-out: AUC(0–∞)
[12] = mouse, in vivo, RSV mice plasma, oral LJF extract 12.0 g/kg, n = 6, read-out: Cmax
[13] = mouse, in vivo, RSV mice plasma, oral LJF extract 12.0 g/kg, n = 6, read-out: MRT(0–t)
[14] = mouse, in vivo, RSV mice plasma, oral LJF extract 12.0 g/kg, n = 6, read-out: T1/2 (converted)
[15] = mouse, in vivo, RSV mice plasma, oral LJF extract 12.0 g/kg, n = 6, read-out: Tmax

Structure (SMILES)	shape of the concentration–time curve [1, 2]	AUC(0-t) [1, 3] [ng·h/mL]	AUC(0-inf) [1, 4] [ng·h/mL]	Cmax [1, 5] [ng/mL]	MRT last [1, 6] [h]	half-life [1, 7] [h]	Tmax [1, 8] [h]	also measured
C=C[C@H]1[C@H](O[C@@H]2O[C@H](CO)[C@@H](O)[C@H](O)[C@H]2O)OC=C2C(=O)OCC[C@]21O [Swertiamarin]	double or multiple peaks	21500	22900	2450	7.37 ± 0.54	5.15 ± 1.52	1	
O=C(O)/C=C/c1ccc(O)c(O)c1 [Caffeic acid]	double or multiple peaks	2920	3280	779 ± 19.2	5.92 ± 0.239	7.92 ± 1.1	2	
C[C@@H]1[C@H]2[C@H](O[C@@H]3O[C@H](CO)[C@@H](O)[C@H](O)[C@H]3O)OC=C(C(=O)O)[C@H]2C[C@@H]1O [Loganic acid]		84.9 ± 12.8	99.3 ± 18.4	87.6 ± 10.9	2.29 ± 0.337	2.33 ± 0.429	0.5	antiviral activity (viruses): significant antiviral activity
O=C(/C=C/c1ccc(O)c(O)c1)O[C@@H]1C[C@](O)(C(=O)O)C[C@@H](O)[C@H]1O [Chlorogenic acid]	double or multiple peaks	5190	5900	5600	2.95 ± 0.0749	26.1 ± 9.42	2	inhibition of RSV infection (RSV; modulating TLR3, TBK1, IRF3 expression, decreasing IFN-β): could inhibit RSV infection
O=C(C=Cc1ccc(O)c(O)c1)OC1CC(O)(C(=O)O)CC(O)C1OC(=O)C=Cc1ccc(O)c(O)c1 (stereo not shown) [Isochlorogenic acid B]	double or multiple peaks							anti-RSV effects (RSV): specific anti-RSV effects; AUC(0–t) [1, 9]: 1100 ng·h/mL; AUC(0–∞) [1, 9]: 1740 ng·h/mL; MRT(0–t) [1, 9]: 7.35 ± 0.170 h; T1/2 [1, 9]: 24.4 ± 2.72 h; Tmax [1, 9]: 2.00 ± 0.00 h; Cmax ([1]; RSV mice plasma, oral LJF extract 12.0 g/kg, n = 6, read-out: Cmax): 415 ± 4.69 ng/mL
C=C[C@H]1[C@H](O[C@@H]2O[C@H](CO)[C@@H](O)[C@H](O)[C@H]2O)OC=C(C(=O)OC)[C@H]1CC(=O)O [Secoxyloganin]	double or multiple peaks		27700	4670	7.19 ± 0.139	8.14 ± 1.28	2	
O=c1cc(-c2ccc(O)c(O)c2)oc2cc(O)cc(O)c12 [Luteolin]		20.9 ± 5.37	21.3 ± 5.32	19.6 ± 6.11	2.12 ± 0.149	1.96 ± 0.746	2	
O=c1c(O[C@@H]2O[C@H](CO)[C@@H](O)[C@H](O)[C@H]2O)c(-c2ccc(O)c(O)c2)oc2cc(O)cc(O)c12 [Isoquercitrin]	double or multiple peaks							AUC(0-t) [1, 10]: 26.5 ± 1.19 ng·h/mL; AUC(0-inf) [1, 11]: 39.6 ± 8.47 ng·h/mL; Cmax [1, 12]: 26.5 ± 1.16 ng/mL; MRT last [1, 13]: 1.5 ± 0.0366 h; half-life [1, 14]: 2.95 ± 1.72 h; Tmax [1, 15]: 0.5 h
C[C@@H]1O[C@@H](OC[C@H]2O[C@@H](Oc3c(-c4ccc(O)c(O)c4)oc4cc(O)cc(O)c4c3=O)[C@H](O)[C@@H](O)[C@@H]2O)[C@H](O)[C@H](O)[C@H]1O [Rutin]	double or multiple peaks							time of first peak of plasma concentration [1, 2]: 30 min; time of second peak of plasma concentration [1, 2]: 2 h; AUC(0-t) ([1]; mouse, in vivo, po, 12 g/kg, RSV mice plasma, oral LJF extract 12.0 g/kg, n = 6, read-out: AUC(0–t)): 31.3 ± 4.34 ng·h/mL; AUC(0-inf) ([1]; mouse, in vivo, po, 12 g/kg, RSV mice plasma, oral LJF extract 12.0 g/kg, n = 6, read-out: AUC(0–∞)): 34.3 ± 3.33 ng·h/mL; Cmax ([1]; mouse, in vivo, po, 12 g/kg, RSV mice plasma, oral LJF extract 12.0 g/kg, n = 6, read-out: Cmax): 30 ± 2.54 ng/mL; MRT last ([1]; mouse, in vivo, po, 12 g/kg, RSV mice plasma, oral LJF extract 12.0 g/kg, n = 6, read-out: MRT(0–t)): 1.51 ± 0.0291 h; half-life ([1]; mouse, in vivo, po, 12 g/kg, RSV mice plasma, oral LJF extract 12.0 g/kg, n = 6, read-out: T1/2 (converted)): 2.03 ± 1.1 h; Tmax [1, 15]: 0.5 h
O=C(C=Cc1ccc(O)c(O)c1)OC1C(O)CC(O)(C(=O)O)CC1O (stereo not shown) [Cryptochlorogenic acid]	double or multiple peaks	1260	1320	1410	2.79 ± 0.225	13.5 ± 2.98	2	
O=c1cc(-c2ccc(O)c(O)c2)oc2cc(O[C@@H]3O[C@H](CO)[C@@H](O)[C@H](O)[C@H]3O)cc(O)c12 [Luteoloside]	double or multiple peaks							time of first peak of plasma concentration [1, 2]: 30 min; time of second peak of plasma concentration [1, 2]: 2 h; AUC(0-t) [1, 10]: 15.8 ± 0.991 ng·h/mL; AUC(0-inf) [1, 11]: 15.9 ± 1.01 ng·h/mL; Cmax [1, 12]: 16.5 ± 1.97 ng/mL; MRT last [1, 13]: 1.5 ± 0.0928 h; half-life [1, 14]: 0.343 ± 0.0915 h; Tmax [1, 15]: 0.5 h
O=C(C=Cc1ccc(O)c(O)c1)OC1CC(O)(C(=O)O)CC(OC(=O)C=Cc2ccc(O)c(O)c2)C1O (stereo not shown) [Isochlorogenic acid A]	double or multiple peaks	1070	1450	822 ± 53.9	4.64 ± 0.289	26.6 ± 4.52	2	
C=C[C@H]1[C@H](O[C@@H]2O[C@H](CO)[C@@H](O)[C@H](O)[C@H]2O)OC=C2C(=O)OC(O)C[C@H]21 (stereo partly shown) [Secologanic acid]	double or multiple peaks	12100	13500	5730	4.88 ± 0.0632	10.9 ± 2.46	2	
O=C(C=Cc1ccc(O)c(O)c1)OC1CC(O)(C(=O)O)CC(O)C1OC(=O)C=Cc1ccc(O)c(O)c1 (stereo not shown) [Isochlorogenic acid C]	double or multiple peaks	926 ± 39	1450	560 ± 20.7	6.39 ± 0.337	26.9 ± 3.16	2	anti-RSV effects (RSV): specific anti-RSV effects
C=C[C@H]1[C@H](O[C@@H]2O[C@H](CO)[C@@H](O)[C@H](O)[C@H]2O)OC=C2C(=O)OCC[C@H]21 [Sweroside]								Tmax ([1]; mouse, in vivo, po, 12 g/kg): 2 h; AUC(0-t) ([1]; mouse, in vivo, po, 12 g/kg, AUC(0–t)): 14200 ng·h/mL; AUC(0-inf) ([1]; mouse, in vivo, po, 12 g/kg, AUC(0–∞)): 17200 ng·h/mL; Cmax ([1]; mouse, in vivo, po, 12 g/kg, Cmax): 4630 ng/mL; MRT last ([1]; mouse, in vivo, po, 12 g/kg, MRT(0–t)): 7.17 ± 0.274 h; half-life ([1]; mouse, in vivo, po, 12 g/kg, T1/2): 10.1 ± 2.25 h
